The numbers were not newly measured in US20240285563A1, “USE OF (S)-3-AMINO-4-(DIFLUOROMETHYLENYL) CYCLOPENT-1-ENE-1-CARBOXYLIC ACID IN THE TREATMENT OF RHEUMATOID ARTHRITIS” (Ovid Therapeutics Inc., priority 2023, published 2024), which cites them from elsewhere.

The structures appear in SMILES notation. Some results are limits rather than exact numbers.

The subject of data set [1] is alanine aminotransferase (Ala-AT).
The target in the next data set is T1, OAT (Homo sapiens, UniProt P04181).
T1 sequence (P04181 36-439 limits assumed): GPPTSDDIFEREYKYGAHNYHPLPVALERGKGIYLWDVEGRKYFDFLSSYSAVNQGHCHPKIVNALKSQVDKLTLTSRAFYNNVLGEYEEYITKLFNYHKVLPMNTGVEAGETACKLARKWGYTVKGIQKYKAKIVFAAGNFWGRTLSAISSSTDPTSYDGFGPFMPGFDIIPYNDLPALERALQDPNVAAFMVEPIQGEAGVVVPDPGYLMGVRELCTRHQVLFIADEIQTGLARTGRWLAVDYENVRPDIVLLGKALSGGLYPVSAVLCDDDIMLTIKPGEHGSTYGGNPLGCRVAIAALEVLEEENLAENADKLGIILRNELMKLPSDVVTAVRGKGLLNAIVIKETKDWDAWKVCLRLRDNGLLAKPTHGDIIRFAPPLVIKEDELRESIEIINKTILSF

Data set [2] deals with aspartate aminotransferase (Asp-AT).

With `N[C@H]1C[C@@H](C(=O)O)CC1=C(F)F` [CPP-115, (1S,3S)-3-amino+difluoromethylenyl-1-cyclopentanoic acid, reference compound], the “inactivation or inhibition of off-target enzyme” value in data set [1] and in data set [2] was “not to inactivate or inhibit” each time. In addition, the Ki (usually the dissociation constant of the complex between target and ligand, obtained from inhibition or displacement) on OAT was 116 µM.

`N[C@H]1C=C(C(=O)O)CC1=C(F)F` [OV329, (S)-3-amino-4-(difluoromethylenyl)cyclopent-1-ene-1-carboxylic acid]: the 50% inhibitory concentration (IC50) in data set [1] (very weak reversible inhibitor) and in data set [2] (very weak reversible inhibitor) was more than 4 mM in each case. The inhibitory constant (Ki) at OAT was 3.3 µM. Besides, on OAT (ratio of kinact/KI versus CPP-115), the “times more efficient an inactivator of OAT than CPP-115” value was 9.0 times.
